This is an account of results in patent US11999746B2, “Compounds” (GlaxoSmithKline Intellectual Property Development Limited, priority 2014, dated 2024).

SMILES strings stand for the structures. Read-outs that look alike come from different tables or passages of the source. A value given as a limit tells only on which side of the number the result lay.

Assay [1] deals with T1, recombinant human Lp-PLA2 (Homo sapiens, UniProt Q13093).
T1 sequence (Q13093 22-441): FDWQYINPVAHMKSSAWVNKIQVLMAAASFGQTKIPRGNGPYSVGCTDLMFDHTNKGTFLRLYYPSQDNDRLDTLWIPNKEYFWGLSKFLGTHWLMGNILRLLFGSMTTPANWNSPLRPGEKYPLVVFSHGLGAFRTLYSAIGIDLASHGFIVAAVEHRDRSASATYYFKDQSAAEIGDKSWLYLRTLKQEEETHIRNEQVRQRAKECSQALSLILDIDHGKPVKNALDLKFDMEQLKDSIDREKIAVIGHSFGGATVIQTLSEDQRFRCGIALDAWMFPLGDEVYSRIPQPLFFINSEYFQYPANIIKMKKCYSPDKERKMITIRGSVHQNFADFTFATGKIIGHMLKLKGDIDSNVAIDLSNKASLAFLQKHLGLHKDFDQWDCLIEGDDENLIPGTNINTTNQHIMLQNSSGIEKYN
The assay can be described thus: (1b) hrThioPAF assay, recombinant human Lp-PLA2. To be noted: Examples 266-412 were tested here, one experiment or average of multiple experiments, read-out: rhLp-PLA2 (pIC50) (converted). It counts as biochemical. In a few lines:
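Fluorogenic assay: 20 pM rhLp-PLA2 in 50 mM HEPES pH 7.4, 150 mM NaCl, 1 mM CHAPS with 1:3 serially diluted compounds; substrate mix of 40 μM 2-thio-PAF, 40 μM CPM, 400 μM NEM (pre-addition levels). 20 min at 25 °C in the dark; fluorescence ex 380/em 485 nm, pIC50 by curve fitting.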

The target of another assay is T2, Lp-PLA2 in human plasma (Homo sapiens, UniProt Q13093).
T2 construct: from tissue; host or cells: pooled human plasma
T2 sequence (Q13093 22-441): T1 sequence (Q13093 22-441)
The assay can be described thus: (3b) Lp-PLA2 human plasma alternative Thio-PAF assay. It counts as biochemical. To be noted: pooled human plasma, read-out: pIC50 in the Lp-PLA2 human plasma assay (converted). Put shortly: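 Pooled human plasma was preincubated with compound for 15 min at RT. Substrate solution (2 mM 2-thio-PAF, 52 μM CPM, 2.5 mM NEM in 50 mM HEPES pH 7.4, 150 mM NaCl, 1 mM CHAPS; pre-addition concentrations) was added, and the reaction was quenched with 5% TFA after 3 min. Fluorescence was read at ex 380/em 485 nm and fitted to give pIC50.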

The mark [2] stands for this setting: (3b) alternative Thio-PAF assay, Examples of 266-412 were tested here.

On to `N#Cc1cc(COc2cc3n(c(=O)n2)C[C@@H]2C[C@H](N)CN32)ccc1F` [Example E391, 5-((((7S,8aS)-7-Amino-1-oxo-1,6,7,8,8a,9-hexahydropyrrolo[1′,2′:3,4]imidazo[1,2-c]pyrimidin-3-yl)oxy)methyl)-2-fluorobenzonitrile], for which the IC50 in assay [1] is not above 10000 nM; on Lp-PLA2 in human plasma (setting [2]) it was not above 100 nM.
Regarding `O=c1nc(OCc2ccc(F)c(F)c2)cc2n1CC1CNCCN21` (centres unmarked) [Example E274, 7-((3,4-Difluorobenzyl)oxy)-3,4,11,11a-tetrahydro-1H-pyrazino[1′,2′:3,4] imidazo [1,2-c]pyrimidin-9(2H)-one], the IC50 (in assay [1]; at Lp-PLA2 in human plasma (setting [2])) was not above 100 nM each time.
For the molecule `N#Cc1cc(COc2cc3n(c(=O)n2)CC2CN(CCC(=O)O)CCN32)ccc1F` (centres unmarked) [Example E325, 3-(7-((3-Cyano-4-fluorobenzyl)oxy)-9-oxo-3,4,11,11a-tetrahydro-1H-pyrazino[1,2′:3,4]imidazo[1,2-c]pyrimidin-2(9H)-yl)propanoic acid], the results for the IC50 (in assay [1]; on Lp-PLA2 in human plasma (setting [2])) were not above 10000 nM and not above 100 nM, respectively.
As for `O=c1nc(OCc2ccc(F)c(F)c2)cc2n1CC1(CCNCC1)N2` [Example 406, 7-((3,4-Difluorobenzyl)oxy)-1H-spiro[imidazo[1,2-c]pyrimidine-2,4′-piperidin]-5(3H)-one], the IC50 in assay [1] is not above 10000 nM; at Lp-PLA2 in human plasma (setting [2]) it was not above 100 nM.
As for `CN(C)CC(=O)N1CCN2c3cc(OCc4ccc(F)c(C#N)c4)nc(=O)n3CC2C1` (centres unmarked) [Example E284, 5-(((2-(2-(Dimethylamino)acetyl)-9-oxo-2,3,4,9,11,11a-hexahydro-1H-pyrazino[1,2′:3,4]imidazo[1,2-c]pyrimidin-7-yl)oxy)methyl)-2-fluorobenzonitrile], the figures for the IC50 (in assay [1]; at Lp-PLA2 in human plasma (setting [2])) were not above 10000 nM and not above 100 nM, respectively.
As for `O=c1nc(OCc2cc(F)c(Oc3cncc(C(F)(F)F)c3)c(F)c2)cc2n1CC1C[S+]([O-])CCN21` (centres unmarked) [Example E372, 7-((3,5-Difluoro-4-((5-(trifluoromethyl)pyridin-3-yl)oxy)benzyl)oxy)-3,4,11,11a-tetrahydropyrimido[6′,1′:2,3]imidazo[5,1-c][1,4]thiazin-9(1H)-one 2-oxide], the IC50 was not above 1 nM in assay [1] and not above 100 nM on Lp-PLA2 in human plasma (setting [2]).
As for `O=C1CN2c3cc(OCc4cc(F)c(Oc5ccnc(C(F)(F)F)c5)c(F)c4)nc(=O)n3CC2CN1` (centres unmarked) [Example E351, 7-((3,5-Difluoro-4-((2-(trifluoromethyl)pyridin-4-yl)oxy)benzyl)oxy)-11,11a-dihydro-1H-pyrazino[1′,2′:3,4]imidazo[1,2-c]pyrimidine-3,9(2H,4H)-dione], the results for the IC50 (in assay [1]; at Lp-PLA2 in human plasma (setting [2])) were not above 1 nM and not above 100 nM, respectively.
The like results for `COC(=O)N1CCN2c3cc(OCc4ccc(F)c(F)c4)nc(=O)n3CC2C1` (centres unmarked) [Example E300, Methyl 7-((3,4-difluorobenzyl)oxy)-9-oxo-3,4,11,11a-tetrahydro-1H-pyrazino[1′,2′:3,4]imidazo[1,2-c]pyrimidine-2(9H)-carboxylate] were, in that order, not above 10000 nM and not above 100 nM.
As for `O=C1CN2c3cc(OCc4ccc(F)c(F)c4)nc(=O)n3CC2CN1` (centres unmarked) [Example E356, 7-((3,4-difluorobenzyl)oxy)-11,11a-dihydro-1H-pyrazino[1′,2′:3,4]imidazo[1,2-c]pyrimidine-3,9(2H,4H)-dione], the IC50 is not above 10000 nM in assay [1] and not above 100 nM on Lp-PLA2 in human plasma (setting [2]).
On to `N#Cc1cc(COc2cc3n(c(=O)n2)CC2C[S+]([O-])CCN32)ccc1F` (centres unmarked) [Example E366, 2-Fluoro-5-(((2-oxido-9-oxo-1,3,4,9,11,11a-hexahydropyrimido[6′,1′:2,3]imidazo[5,1-c][1,4]thiazin-7-yl)oxy)methyl)benzonitrile], for which the IC50 in assay [1] is not above 10000 nM; on Lp-PLA2 in human plasma (setting [2]), not above 100 nM.
Take `N#Cc1cc(COc2cc3n(c(=O)n2)CC2(CCN(Cc4ccccc4)CC2)N3)ccc1F` [Example 412, 5-(((1′-Benzyl-5-oxo-3,5-dihydro-1H-spiro[imidazo[1,2-c]pyrimidine-2,4′-piperidin]-7-yl)oxy)methyl)-2-fluorobenzonitrile]: the IC50 is not above 10000 nM in assay [1]; not above 10000 nM at Lp-PLA2 in human plasma ((3a) Thio-PAF assay, Examples 1-265 and 413-430 were tested here).
For `Cc1ccc(Oc2c(F)cc(COc3cc4n(c(=O)n3)CC3(CCOCC3)N4)cc2F)cn1` [Example 403, 7-((3,5-Difluoro-4-((6-methylpyridin-3-yl)oxy)benzyl)oxy)-2′,3′,5′,6′-tetrahydro-1H-spiro[imidazo[1,2-c]pyrimidine-2,4′-pyran]-5(3H)-one], the figures for the IC50 (in assay [1]; on Lp-PLA2 in human plasma (setting [2])) were not above 10000 nM and not above 100 nM, respectively.
On to `O=C1CN2c3cc(OCc4cc(F)c(Oc5cncc(C(F)(F)F)c5)c(F)c4)nc(=O)n3CC2CN1` (centres unmarked) [Example E352, 7-((3,5-Difluoro-4-((5-(trifluoromethyl)pyridin-3-yl)oxy)benzyl)oxy)-11,11a-dihydro-1H-pyrazino[1,2′:3,4]imidazo[1,2-c]pyrimidine-3,9(2H,4H)-dione], for which the IC50 in assay [1] was 0.501 nM; at Lp-PLA2 in human plasma (setting [2]), not above 100 nM.
In the case of `O=C(C1CC1)N1CCN2c3cc(OCc4ccc(F)c(F)c4)nc(=O)n3CC2C1` (centres unmarked) [Example E330, 2-(Cyclopropanecarbonyl)-7-((3,4-difluorobenzyl)oxy)-3,4,11,11a-tetrahydro-1H-pyrazino[1′,2′:3,4]imidazo[1,2-c]pyrimidin-9(2H)-one], the IC50 in assay [1] is not above 10000 nM; on Lp-PLA2 in human plasma (setting [2]), not above 100 nM.
With `CC(C)(C)C(=O)N1CCN2c3cc(OCc4ccc(F)c(F)c4)nc(=O)n3CC2C1` (centres unmarked) [Example E332, 7-((3,4-Difluorobenzyl)oxy)-2-pivaloyl-3,4,11,11a-tetrahydro-1H-pyrazino[1′,2′:3,4]imidazo[1,2-c]pyrimidin-9(2H)-one], the IC50 in assay [1] is not above 10000 nM; at Lp-PLA2 in human plasma (setting [2]) it was not above 100 nM.
Regarding `CCC(=O)N1CCN2c3cc(OCc4ccc(F)c(C#N)c4)nc(=O)n3CC2C1` (centres unmarked) [Example E289, 2-Fluoro-5-(((9-oxo-2-propionyl-2,3,4,9,11,11a-hexahydro-1H-pyrazino[1′,2′:3,4]imidazo[1,2-c]pyrimidin-7-yl)oxy)methyl)benzonitrile 2,2,2-trifluoroacetate], the values for the IC50 (in assay [1]; at Lp-PLA2 in human plasma (setting [2])) were not above 10000 nM and not above 100 nM, respectively.
The like results for `O=C([C@@H]1CC(F)(F)CN1)N1CCN2c3cc(OCc4ccc(F)c(F)c4)nc(=O)n3CC2C1` (stereo partly drawn) [Example E342, 7-((3,4-Difluorobenzyl)oxy)-2-((S)-4,4-difluoropyrrolidin-2-carbonyl)-3,4,11,11a-tetrahydro-1H-pyrazino[1,2′:3,4]imidazo[1,2-c]pyrimidin-9(2H)-one] were, in that order, not above 10000 nM and not above 100 nM.
For the molecule `O=c1nc(OCc2cc(F)c(Oc3ccnc(C(F)(F)F)c3)c(F)c2)cc2n1CC1(COC1)N2` [Example E395, 7-((3,5-difluoro-4-((2-(trifluoromethyl)pyridin-4-yl)oxy)benzyl)oxy)-1H-spiro[imidazo[1,2-c]pyrimidine-2,3′-oxetan]-5(3H)-one], the figures for the IC50 (in assay [1]; at Lp-PLA2 in human plasma (setting [2])) were 0.794 nM and not above 100 nM, respectively.
For `CC(C)S(=O)(=O)N1CCN2c3cc(OCc4ccc(F)c(C#N)c4)nc(=O)n3CC2C1` (centres unmarked) [Example E295, 2-Fluoro-5-(((2-(isopropylsulfonyl)-9-oxo-2,3,4,9,11,11a-hexahydro-1H-pyrazino[1′,2′:3,4]imidazo[1,2-c]pyrimidin-7-yl)oxy)methyl)benzonitrile 2,2,2-trifluoroacetate], the values for the IC50 (in assay [1]; at Lp-PLA2 in human plasma (setting [2])) were not above 10000 nM and not above 100 nM, respectively.
